{"source": "the supplement of paper PMC10307832", "experiment_in_all_cases": "relative viability (nuclei count vs DMSO), 5 days (fraction); higher = more cells survive", "key": {"Tozasertib": {"compound": "Cc1cc(Nc2cc(N3CCN(C)CC3)nc(Sc3ccc(NC(=O)C4CC4)cc3)n2)n[nH]1 [Tozasertib]", "how_it_was_run": "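Hoechst staining, done together with fixation and permeabilisation, marked nuclei for 4× imaging and MetaXpress counting. This followed 5 days without medium change after lung cancer cell lines, kept overnight at 37 °C in 1536-well plates, were pinned with five library-drug doses (not always all listed) spaced by √10 on vehicle-anchored plates. Viability is the ratio of treated-well to vehicle-well nuclei, expressed as a median across plates. Plates passed only at control CV below 25% with at least one doubling.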"}, "Tozasertib + Phenformin": {"compound": "Cc1cc(Nc2cc(N3CCN(C)CC3)nc(Sc3ccc(NC(=O)C4CC4)cc3)n2)n[nH]1 [Tozasertib] + N=C(N)NC(=N)NCCc1ccccc1 [Phenformin] (partner 250 µM)", "how_it_was_run": "(§1)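 Relative viability divides the nuclei count in treated wells by that in vehicle wells. Lung cancer cell lines were seeded in 1536-well plates, dosed by pin tool the next day, and fixed and stained after 5 days in one step with final 0.05% Triton X-100, 1% formaldehyde and 1 ug/ml Hoechst. Dosing was a single drug or a fixed anchor-drug dose plus five library-drug doses (not always all listed) in √10 steps, and values are medians of duplicate plates imaged at 4×.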"}, "Tozasertib + Luminespib": {"compound": "Cc1cc(Nc2cc(N3CCN(C)CC3)nc(Sc3ccc(NC(=O)C4CC4)cc3)n2)n[nH]1 [Tozasertib] + CCNC(=O)c1noc(-c2cc(C(C)C)c(O)cc2O)c1-c1ccc(CN2CCOCC2)cc1 [Luminespib] (partner 0.01 µM)", "how_it_was_run": "as §1"}, "Tozasertib + Dasatinib": {"compound": "Cc1cc(Nc2cc(N3CCN(C)CC3)nc(Sc3ccc(NC(=O)C4CC4)cc3)n2)n[nH]1 [Tozasertib] + Cc1nc(Nc2ncc(C(=O)Nc3c(C)cccc3Cl)s2)cc(N2CCN(CCO)CC2)n1 [Dasatinib] (partner 0.075 µM)", "how_it_was_run": "as §1"}, "Tozasertib + Foretinib": {"compound": "Cc1cc(Nc2cc(N3CCN(C)CC3)nc(Sc3ccc(NC(=O)C4CC4)cc3)n2)n[nH]1 [Tozasertib] + COc1cc2c(Oc3ccc(NC(=O)C4(C(=O)Nc5ccc(F)cc5)CC4)cc3F)ccnc2cc1OCCCN1CCOCC1 [Foretinib] (partner 0.25 µM)", "how_it_was_run": "as §1"}, "Tozasertib + OSI-027": {"compound": "Cc1cc(Nc2cc(N3CCN(C)CC3)nc(Sc3ccc(NC(=O)C4CC4)cc3)n2)n[nH]1 [Tozasertib] + COc1cccc2cc(-c3nc([C@H]4CC[C@H](C(=O)O)CC4)n4ncnc(N)c34)[nH]c12 [OSI-027] (partner 0.5 µM)", "how_it_was_run": "as §1"}, "Tozasertib + Palbociclib": {"compound": "Cc1cc(Nc2cc(N3CCN(C)CC3)nc(Sc3ccc(NC(=O)C4CC4)cc3)n2)n[nH]1 [Tozasertib] + CC(=O)c1c(C)c2cnc(Nc3ccc(N4CCNCC4)cn3)nc2n(C2CCCC2)c1=O [Palbociclib] (partner 0.5 µM)", "how_it_was_run": "as §1"}, "Tozasertib + Decitabine": {"compound": "Cc1cc(Nc2cc(N3CCN(C)CC3)nc(Sc3ccc(NC(=O)C4CC4)cc3)n2)n[nH]1 [Tozasertib] + Nc1ncn([C@H]2C[C@H](O)[C@@H](CO)O2)c(=O)n1 [Decitabine] (partner 2 µM)", "how_it_was_run": "as §1"}, "Tozasertib + AZD7762": {"compound": "Cc1cc(Nc2cc(N3CCN(C)CC3)nc(Sc3ccc(NC(=O)C4CC4)cc3)n2)n[nH]1 [Tozasertib] + NC(=O)Nc1cc(-c2cccc(F)c2)sc1C(=O)N[C@H]1CCCNC1 [AZD7762] (partner 0.2 µM)", "how_it_was_run": "as §1"}, "Tozasertib + Pemetrexed": {"compound": "Cc1cc(Nc2cc(N3CCN(C)CC3)nc(Sc3ccc(NC(=O)C4CC4)cc3)n2)n[nH]1 [Tozasertib] + Nc1nc2[nH]cc(CCc3ccc(C(=O)N[C@@H](CCC(=O)O)C(=O)O)cc3)c2c(=O)[nH]1 [Pemetrexed] (partner 0.2 µM)", "how_it_was_run": "as §1"}, "Tozasertib + Trametinib": {"compound": "Cc1cc(Nc2cc(N3CCN(C)CC3)nc(Sc3ccc(NC(=O)C4CC4)cc3)n2)n[nH]1 [Tozasertib] + CC(=O)Nc1cccc(-n2c(=O)n(C3CC3)c(=O)c3c(Nc4ccc(I)cc4F)n(C)c(=O)c(C)c32)c1 [Trametinib] (partner 0.02 µM)", "how_it_was_run": "as §1"}, "Tozasertib + Vorinostat": {"compound": "Cc1cc(Nc2cc(N3CCN(C)CC3)nc(Sc3ccc(NC(=O)C4CC4)cc3)n2)n[nH]1 [Tozasertib] + O=C(CCCCCCC(=O)Nc1ccccc1)NO [Vorinostat] (partner 1 µM)", "how_it_was_run": "as §1"}, "Tozasertib + Olaparib": {"compound": "Cc1cc(Nc2cc(N3CCN(C)CC3)nc(Sc3ccc(NC(=O)C4CC4)cc3)n2)n[nH]1 [Tozasertib] + O=C(c1cc(Cc2n[nH]c(=O)c3ccccc23)ccc1F)N1CCN(C(=O)C2CC2)CC1 [Olaparib] (partner 8 µM)", "how_it_was_run": "as §1"}}, "data": [{"cell line": "NCI-H1623", "values": [{"measurement": "relative viability", "setting": "Tozasertib; 0.004 µM", "value": 0.859}, {"measurement": "relative viability", "setting": "Tozasertib; 0.01265 µM", "value": 0.965}, {"measurement": "relative viability", "setting": "Tozasertib; 0.04 µM", "value": 0.966}, {"measurement": "relative viability", "setting": "Tozasertib; 0.1 µM, anchor plate", "value": 0.434}, {"measurement": "relative viability", "setting": "Tozasertib; 0.1265 µM", "value": 0.929}, {"measurement": "relative viability", "setting": "Tozasertib + Phenformin; first compound 0.004 µM", "value": 0.552}, {"measurement": "relative viability", "setting": "Tozasertib + Phenformin; first compound 0.01265 µM", "value": 0.541}, {"measurement": "relative viability", "setting": "Tozasertib + Phenformin; first compound 0.04 µM", "value": 0.583}, {"measurement": "relative viability", "setting": "Tozasertib + Phenformin; first compound 0.1265 µM", "value": 0.526}, {"measurement": "relative viability", "setting": "Tozasertib + Luminespib; first compound 0.004 µM", "value": 0.43}, {"measurement": "relative viability", "setting": "Tozasertib + Luminespib; first compound 0.04 µM", "value": 0.473}, {"measurement": "relative viability", "setting": "Tozasertib + Luminespib; first compound 0.1265 µM", "value": 0.505}, {"measurement": "relative viability", "setting": "Tozasertib + Dasatinib; first compound 0.004 µM", "value": 0.549}, {"measurement": "relative viability", "setting": "Tozasertib + Dasatinib; first compound 0.01265 µM", "value": 0.515}, {"measurement": "relative viability", "setting": "Tozasertib + Dasatinib; first compound 0.04 µM", "value": 0.536}, {"measurement": "relative viability", "setting": "Tozasertib + Dasatinib; first compound 0.1265 µM", "value": 0.556}, {"measurement": "relative viability", "setting": "Tozasertib + Foretinib; first compound 0.004 µM", "value": 0.781}, {"measurement": "relative viability", "setting": "Tozasertib + Foretinib; first compound 0.01265 µM", "value": 0.829}, {"measurement": "relative viability", "setting": "Tozasertib + Foretinib; first compound 0.04 µM", "value": 0.898}, {"measurement": "relative viability", "setting": "Tozasertib + Foretinib; first compound 0.1265 µM", "value": 0.761}, {"measurement": "relative viability", "setting": "Tozasertib + OSI-027; first compound 0.004 µM", "value": 0.45}, {"measurement": "relative viability", "setting": "Tozasertib + OSI-027; first compound 0.01265 µM", "value": 0.428}, {"measurement": "relative viability", "setting": "Tozasertib + OSI-027; first compound 0.04 µM", "value": 0.487}, {"measurement": "relative viability", "setting": "Tozasertib + OSI-027; first compound 0.1265 µM", "value": 0.453}]}, {"cell line": "NCI-H1648", "values": [{"measurement": "relative viability", "setting": "Tozasertib; 0.01265 µM", "value": 0.779}, {"measurement": "relative viability", "setting": "Tozasertib; 0.04 µM", "value": 0.743}, {"measurement": "relative viability", "setting": "Tozasertib; 0.1 µM, anchor plate", "value": 0.497}, {"measurement": "relative viability", "setting": "Tozasertib; 0.1265 µM", "value": 0.79}, {"measurement": "relative viability", "setting": "Tozasertib + Palbociclib; first compound 0.004 µM", "value": 0.279}, {"measurement": "relative viability", "setting": "Tozasertib + Palbociclib; first compound 0.01265 µM", "value": 0.304}, {"measurement": "relative viability", "setting": "Tozasertib + Palbociclib; first compound 0.04 µM", "value": 0.276}, {"measurement": "relative viability", "setting": "Tozasertib + Palbociclib; first compound 0.1265 µM", "value": 0.255}, {"measurement": "relative viability", "setting": "Tozasertib + Decitabine; first compound 0.004 µM", "value": 0.461}, {"measurement": "relative viability", "setting": "Tozasertib + Decitabine; first compound 0.01265 µM", "value": 0.461}, {"measurement": "relative viability", "setting": "Tozasertib + Decitabine; first compound 0.04 µM", "value": 0.383}, {"measurement": "relative viability", "setting": "Tozasertib + Decitabine; first compound 0.1265 µM", "value": 0.401}, {"measurement": "relative viability", "setting": "Tozasertib + AZD7762; first compound 0.004 µM", "value": 0.717}, {"measurement": "relative viability", "setting": "Tozasertib + AZD7762; first compound 0.01265 µM", "value": 0.619}, {"measurement": "relative viability", "setting": "Tozasertib + AZD7762; first compound 0.04 µM", "value": 0.596}, {"measurement": "relative viability", "setting": "Tozasertib + AZD7762; first compound 0.1265 µM", "value": 0.393}, {"measurement": "relative viability", "setting": "Tozasertib + Pemetrexed; first compound 0.004 µM", "value": 0.891}, {"measurement": "relative viability", "setting": "Tozasertib + Pemetrexed; first compound 0.01265 µM", "value": 0.665}, {"measurement": "relative viability", "setting": "Tozasertib + Pemetrexed; first compound 0.04 µM", "value": 0.773}, {"measurement": "relative viability", "setting": "Tozasertib + Pemetrexed; first compound 0.1265 µM", "value": 0.615}, {"measurement": "relative viability", "setting": "Tozasertib + Trametinib; first compound 0.004 µM", "value": 0.488}, {"measurement": "relative viability", "setting": "Tozasertib + Trametinib; first compound 0.01265 µM", "value": 0.444}, {"measurement": "relative viability", "setting": "Tozasertib + Trametinib; first compound 0.04 µM", "value": 0.425}, {"measurement": "relative viability", "setting": "Tozasertib + Trametinib; first compound 0.1265 µM", "value": 0.41}, {"measurement": "relative viability", "setting": "Tozasertib + Vorinostat; first compound 0.004 µM", "value": 0.42}, {"measurement": "relative viability", "setting": "Tozasertib + Vorinostat; first compound 0.01265 µM", "value": 0.296}, {"measurement": "relative viability", "setting": "Tozasertib + Vorinostat; first compound 0.04 µM", "value": 0.425}, {"measurement": "relative viability", "setting": "Tozasertib + Vorinostat; first compound 0.1265 µM", "value": 0.379}, {"measurement": "relative viability", "setting": "Tozasertib + Olaparib; first compound 0.004 µM", "value": 1.64}, {"measurement": "relative viability", "setting": "Tozasertib + Olaparib; first compound 0.01265 µM", "value": 0.767}, {"measurement": "relative viability", "setting": "Tozasertib + Olaparib; first compound 0.04 µM", "value": 0.844}, {"measurement": "relative viability", "setting": "Tozasertib + Olaparib; first compound 0.1265 µM", "value": 0.531}, {"measurement": "relative viability", "setting": "Tozasertib + OSI-027; first compound 0.1265 µM", "value": 0.237}]}]}
